In a melting point compilation (Tetko et al.):

Row | Structure (SMILES) | melting point [°C]
1 | COc1ccccc1-c1ccc(C=NO)o1 | 128
2 | COc1nn(CSP(=S)(OC)OC)c(=O)s1 | 39.5
3 | O=S1(=O)OC(c2ccc(O)cc2)(c2ccc(O)cc2)c2ccccc21 | 300
4 | O=c1[nH]c2ccccc2n1-c1ccccc1 | 207
5 | CCCCCCCCC(C)=O | 14
6 | CCC1CN2CCC3(C(=O)Nc4ccccc43)C2CC1C(=COC)C(=O)OC (stereo unspecified) | 216
7 | N#CC1(c2ccc(F)cc2)CCC(=O)CC1 | 93
8 | COc1cc(OC(C)=O)c2c(=O)c(O[C@@H]3O[C@H](COC(C)=O)[C@H](OC(C)=O)[C@H](OC(C)=O)[C@@H]3O[C@@H]3O[C@H](C)[C@H](OC(C)=O)[C@H](OC(C)=O)[C@@H]3OC(C)=O)c(-c3ccc(OC(C)=O)c(OC(C)=O)c3)oc2c1 | 117 to 120
9 | CCCCC(=O)NC | -26
10 | NCC(c1ccccc1)c1ccccc1 | 43 to 49
11 | CCCCCCCCCCCCCC#N | 19
12 | c1ccc2cc3c(ccc4cc5ccccc5cc43)cc2c1 | 257
13 | CC12CCC(C(CO)C1=O)C2(C)C (stereo unspecified) | 138
14 | O=C(Nc1ccc(-c2ccc(NC(=O)c3ccccc3)cc2NC(=O)c2ccccc2)c(NC(=O)c2ccccc2)c1)c1ccccc1 | 279
15 | CCCCC=CCCCCCCCCOC(C)=O | 1.3
16 | CC1=CC(=O)C(C(=O)OC2CC(C)CCC2C(C)C)C(C)C1C(=O)OC1CC(C)CCC1C(C)C (stereo unspecified) | 185 to 186
17 | CC(C)N(C(=O)C(C(F)(F)F)C(F)(F)F)C(C)C | 53
18 | CN1C2CCCC1CC(=O)C2 | 63 to 65
19 | CCCCCCCCCCCCCCCCCCOO | 49.5
20 | CC1CCC(C(C)C)C(=O)C1 (single isomer, unassigned; (-)) | -6
21 | COC1OC(C(=O)O)C(OC2OC(C(=O)O)C(OC)C(O)C2O)C(O)C1O (stereo unspecified) | 300
22 | O=c1c2ccccc2[nH]c(=S)n1Cc1ccccc1 | 256 to 257
23 | O=C1OC2(CCCCC2)OC1c1ccccc1 (stereo unspecified) | 87

Row | Structure (SMILES) | melting point [°C]
24 | Cc1ccc(N)cc1[N+](=O)[O-] | 76.5
25 | O=c1[nH]c2ccccc2n1C1CCN(CCCC(c2ccc(F)cc2)c2ccc(F)cc2)CC1 | 216
26 | COc1ccc2c(c1OC)C(=O)OC2C1c2cc3c(cc2CCN1C)OCO3 (stereo unspecified) | 132
27 | O=C(CCCN1CCC(n2c(=S)[nH]c3ccccc32)CC1)c1ccc(F)cc1 | 202
28 | O=C1c2ccccc2C(=O)N1c1n[nH]c2ccccc12 | 239 to 241
29 | CCCCCCc1ccccc1 | -61
30 | O=C1C=C(NCNc2ccccn2)C(=O)c2ccccc21 | 134 to 136
31 | Fc1ccc(NC(=S)Nc2cc(Cl)cc(Cl)c2)cc1 | 164
32 | C1CCN2CC3CC(CN4CCCCC34)C2C1 (stereo unspecified) | 30.5
33 | CCCCCCCCCCCCCCCCC(C)CC (stereo unspecified) | 8
34 | CCOc1ccc(-c2nnc3sc(-c4ccc(Cl)cc4)nn23)cc1 | 113
35 | N#CC(C#N)=Nc1ccccc1 | 86 to 87
36 | CCOP(=S)(OCC)Oc1ccc2c3c(c(=O)oc2c1)CCCC3 | 88.2
37 | CC(C)C1C(=O)NC(=O)NC1=O | 214
38 | NC(CS(=O)(=O)c1ccc(Cl)cc1)=NO | 202 to 205
39 | C=C(C)CCCCCCCCCC | -31
40 | OCC1(CO)CC=CCC1 | 88.5
41 | Nc1cnccc1Cl | 61
42 | CNC1CCC(c2ccc(Cl)c(Cl)c2)c2ccccc21 (stereo unspecified) | 244
43 | O=[N+]([O-])c1cccnc1Oc1ccc(Cl)cc1 | 89 to 90
44 | CCc1cccc(C)c1N(C(=O)CCl)C(C)COC (stereo unspecified) | -40
45 | FC(F)(F)c1nnc2sc(=S)[nH]n12 | 160

Results, then the compound that gave them:

Row | melting point [°C] | Structure (SMILES)
46 | 71 | Nc1c(Br)cc(C(F)(F)F)cc1[N+](=O)[O-]
47 | 140 | CC(C)(C)c1cc(CO)cc(C(C)(C)C)c1O
48 | 79 | O=Cc1cc([N+](=O)[O-])ccc1Cl
49 | 120 | COc1cc(CC(=O)O)cc(OC)c1OC
50 | 231 | CCCCNc1cc(C(=O)O)cc(S(N)(=O)=O)c1Oc1ccccc1
51 | 167 to 168 | Nc1cccc(-c2ccncc2)c1
52 | 157 | Cc1cnc(O)c(Br)c1
53 | 160 | O=C(C[N+](=O)[O-])c1cccc(C(=O)C[N+](=O)[O-])c1
54 | 138 | Cc1c(C)c(C)c(C(=O)c2ccccc2)c(C)c1C
55 | 198 | O=C(Nc1ccc([N+](=O)[O-])cc1)c1ccccc1
56 | 155 to 157 | CCOC(=O)c1c(-c2ccc(-c3ccccc3)cc2)csc1N
57 | 72 | CN1C(=O)CC(c2ccccc2)C1=O (stereo unspecified)
58 | 240 | Cc1cc(C(=O)O)cc(O)n1
59 | 180 | CCC(c1ccccc1)c1c(O)oc2ccccc2c1=O (stereo unspecified)
60 | 92 | COC(=O)C1CCCc2c1[nH]c1ccc(OC)cc21 (stereo unspecified)
61 | 174 to 176 | Nc1c(S(=O)(=O)c2ccccc2)csc1C(=O)O
62 | 214 | CC(=O)OC1(C(C)=O)CCC2C3C=C(C)C4=CC(=O)CCC4(C)C3CCC21C (stereo unspecified)
63 | 70 to 71 | CC(C)=CCC(C#N)(CC=C(C)C)C(=O)O
64 | 194 | NC(=O)C1CCCN1C(=O)COC(=O)c1ccccc1 (stereo unspecified)
65 | 155 | Nc1cc(Cl)c([N+](=O)[O-])cc1Cl
66 | 55 | CC(C)COC(=O)c1ccc(C(=O)OCC(C)C)cc1

Row | melting point [°C] | Structure (SMILES)
67 | 85 to 88 | CC(C)(C)OC(=O)N[C@@H](Cc1ccccc1)C(=O)O
68 | 85 | COc1c(C(C)C)oc2cc3oc(=O)ccc3cc12
69 | 211 to 213 | CCOC(=O)c1cnc2nc(SC)nn2c1N
70 | 35 | N#CCc1cc(F)cc(F)c1
71 | 113 | CCCCCCCCc1ccc(NC(=O)c2ccc(C)cc2)cc1
72 | 210 | COc1cc(OC)c2cc(C(=O)c3cccc4ccccc34)c(=O)oc2c1
73 | 232 | O=c1cc(CN2CCOCC2)c2cc(O)c(O)cc2o1
74 | 133 | CCN(CCO)c1ccc(N=Nc2ccc([N+](=O)[O-])cc2Cl)cc1
75 | 78 to 81 | Cc1onc(-c2c(F)cccc2Cl)c1C#N
76 | 179 | COc1ccc(-c2ccc(S(=O)(=O)NC(Cc3ccccc3)C(=O)O)cc2)cc1 (stereo unspecified)
77 | 182 | CC(C)(C)N(NC(=O)c1ccccc1)C(=O)c1ccccc1[N+](=O)[O-]
78 | 182 | N=C(N)c1ccc(N)cc1
79 | 81 | CC=Cc1cccc(OC)c1O
80 | 182 | NCC(=O)O
81 | 187 | O=C1C=C(O)CC(c2ccccc2)C1 (stereo unspecified)
82 | 95.5 | O=[N+]([O-])c1cc(N(CCO)CCO)ccc1NCCO
83 | 257 to 259 | NC(=O)NN=Cc1cccc2c(Br)cccc12
84 | 91 to 92 | OCc1ccc2sccc2c1
85 | 64.5 | CC=C(C)C(=O)O
86 | 272 | CC(=O)Nc1cc2c(cc1/C=C/c1ccccc1)CC(c1ccccc1)N2C(C)=O (stereo unspecified)
